In patent US10377731B2, “Compositions and methods for cancer treatment” (Boston Biomedical, Inc., priority 2007, dated 2019):
Entries after “also recorded” stand apart in the source; their conditions may differ.

Assays:
[1] = system: Stat3; assay: Stat3-luciferase (Stat3-Luc) reporter assay, OSM-stimulated HeLa cells; type: cell-based; details: HeLa cells
Protocol: Luciferase Reporter Assay: HeLa Cells were co-transfected with Stat3-luciferase (Stat3-Luc) reporter vector (Panomics, Fremont, Calif.) and Renilla luciferase (Promega, Madison, Wis.) using Lipofectamine 2000 as described by the manufacturer (Invitrogen). Following transfection, cells were maintained in medium containing 0.5% FBS for 24 hours. Cells were then treated with the indicated compound for 30 minutes prior to the addition of 25 ng/ml oncostatin M (OSM) (R&D Systems, Minneapolis, Minn.) to the medium. 6 hours following OSM addition, cells were harvested and levels of firefly and renilla luciferase were measured using the Dual-Glo Luciferase Assay System as described by the manufacturer (Promega).
Inhibition of Stat3 transcription activity. Compounds were tested for their ability to inhibit Stat3 transcription activation activity in cells using a Stat3-luciferase (Stat3-luc) reporter construct. Cells transfected with Stat3-luc were cultured in reduced serum medium prior to addition of indicated compound for 30 minutes. Cells were then stimulated with 25 ng/ml oncostatin M (OSM) for 6 hours followed by detection of Stat3-luc reporter activity. […] AG490, a known inhibitor of the Jak-Stat pathway, was included as a positive control for Stat3 inhibition.

[2] = system: Stat3; assay: Stat3 DNA binding assay (EMSA), HeLa nuclear extract; type: biochemical; details: HeLa nuclear extract with constitutively activated Stat3
Protocol: STAT3 DNA Binding Assay: Electrophoretic mobility shift assay (EMSA) was performed as described by the manufacturer (Li-Cor Biosciences, Lincoln, Nebr.). Briefly, nuclear extracts were made from HeLa cells using the NucBuster Protein Extraction Kit as described by the manufacturer (EMD Biosciences, San Diego, Calif.). 5 μg of nuclear extract was pre-incubated with the indicated dose of indicated compound for 30 minutes prior to a 15-minute incubation with the IR700-labeled consensus Stat3 oligonucleotide. Samples were then electrophoresed on a polyacrylamide gel and directly scanned using the Odyssey infrared imaging system (Li-Cor Biosciences). For the enzyme-linked immunosorbent assay (ELISA), 5 μg of nuclear extract was preincubated with indicated concentration of indicated compound for 30 minutes prior to the addition of biotinylated oligo (5′-Biotin-[…]-3′ SEQ ID NO. 1). Stat3-DNA complexes were then captured on streptavidin coated 96 well plates (Pierce, Rockford, Ill.). Bound complexes were then incubated with Stat3 polyclonal antibody (Santa Cruz Biotechnology, Santa Cruz, Calif.) followed by anti-rabbit HRP conjugated secondary antibody (GE Healthcare, Pittsburgh, Pa.). Bound antibody was then visualized by addition of TMB substrate (Pierce) and absorbance measured at 450 nm.
Inhibition of Stat3 DNA-binding activity. Nuclear extracts from HeLa cells, which contain constitutively activated Stat3 as detected by phosphorylation at the tyrosine 705 residue, were used to perform Stat3 EMSAs to monitor Stat3 DNA binding activity. Nuclear extracts were incubated with indicated compound prior to incubation with IR700-labeled Stat3 consensus oligonucleotide. Binding of Stat3 to the oligonucleotide was monitored by gel electrophoresis and detection using a LiCor Odyssey infrared scanner.

[3] = system: CD133+ cells; assay: Cleaved-Caspase 3 staining of CD133+ cells; type: cell-based; details: CD133+ cells enriched with antibody magnetic beads
Description: CSC isolation with surface markers: Sorting tumor cells based primarily upon the differential expression of the surface marker(s), such as CD44 or CD133, have accounted for the majority of the highly tumorigenic CSCs described to date. CD133 isolation is based upon the method of Ricci-Vitiani et al., with slight modification. CD133^+ cells were isolated by either fluorescence activated cell sorting (FACS) or magnetic nanoparticle-based separation. Briefly, 10^7 cells/mL were labeled with CD133/1 (AC133)-PE for FACS-based cell sorting; or with CD133/1 (AC133)-biotin (Miltenyi Biotec, Auburn, Calif.) for magnetic field-based separation using the EasySep® biotin selection kit (Miltenyi Biotec) according to the manufacturer's recommendations. Non-specific labeling was blocked with the supplied FcR blocking reagent and antibody incubations (1:11) were carried out on ice for 15 minutes in PBS with 2% FBS and 1 mM EDTA. Five washes were done for EasySep® isolation, whereas cells were pelleted at 400×g for 5 minutes and resuspended at 2×10^7/mL, before sorting by FACS.
Immunofluorescence: Cells treated with indicated compound for an indicated time were either fixed in 4% formaldehyde or cold methanol for the detection of Annexin V, cleaved caspase 3, or stat3, respectively. Coverslips were air dried and rehydrated in PBS at room temperature for 10 min. […]

[4] = system: CD44high CSCs (FaDu); assay: Sphere assay (CSC spherogenesis); type: cell-based, human; details: FACS-isolated CD44high CSCs grown as spheres for 72 hours before challenge
Protocol: CD44^high cells were isolated by FACS according to the methods described in Ponti et al, with slight modification. Briefly, after trypsinization and recovery of cells for 30 minutes at 37° C. in growth media, cells were pelleted at 400×g and were resuspended in PBS with 2% FBS and 1 mM EDTA at 1×10^6 cells/mL. Cells were then incubated on ice with a 1:100 dilution of CD44-FITC (BD Biosicences, San Diego, Calif.) for 15 minutes. Alternatively, CD24-PE (BD Bioscences, San Diego, Calif.) (1:100) was utilized for negative selection. After washing three times, cells were resuspended at 2×10^6/mL and passed through a […] mesh before sorting
Sphere assay: A reliable method of measuring the self-renewal capacity of cell population if the ability to be cultured as spheres in the absence of serum or attachment. CD44^high FaDu or Hoechst side population cancer stem cells were cultured in ultra low attachment plates in cancer stem cell media (DMEM/F12, B27 Neurobasal supplement, 20 ng/ml EGF, 10 ng/ml FGF, 4 μg/ml insulin, and 0.4% BSA) to allow spheres formation. Typically, sphere formation was evaluated by microscopy after 10-14 days in culture and spheres with >50 cells were scored.
Identification of compounds that inhibit CSC spherogenesis in vitro. One of the hallmarks of cancer stem cells is their ability to self-renew. A reliable method of measuring the self-renewal capacity of cell populations is the ability to be cultured as spheres in the absence of serum or attachment. To compare the ability of compound 401 to other targeted and chemotherapeutic agents, FACS-isolated CD44^high CSCs were grown as spheres for 72 hours before being challenged with a panel of therapeutic agents. […] Tarceva, Sutent, and Gleevec were added at approximately three times their reported therapeutic concentrations.

CC(=O)c1cc2c(o1)C(=O)c1ccccc1C2=O [Compound 401, 2-acetylnaphtho[2,3-b]furan-4,9-dione]
Inhibition of OSM-stimulated Stat3 reporter activity (in words) ([1]; Stat3-luc, 25 ng/ml OSM for 6 hours): inhibits
IC50 ([1]; Homo sapiens, compound 30 minutes before 25 ng/ml oncostatin M, read 6 hours later, read-out: IC50 in Stat3-Luc assays): ~0.25 µM
Inhibition of Stat3 DNA-binding activity (in words) [2]: Dose dependent inhibition; also recorded: can inhibit
Cleaved-Caspase 3 staining (apoptosis) [3]: many of the CD133^+ cells become cleaved-Caspase 3 positive; also recorded: apoptotic
Effect on CSC sphere proliferation / formation [4]: effective at preventing sphere proliferation; also recorded: blocks
